According to patent US4476120A, “Thiolic derivatives of erythromycin having therapeutic activity, and pharmaceutical compositions containing them” (Sigma Tau Indistrie Farmaceutiche Riunites, p.A, priority 1982, dated 1984):
In brackets after ≈: the same amount, converted by molar mass. Like-named read-outs stand apart in the source and are kept apart here.

Key:
[1] = system: E. coli SS 07; type: cell-based; conditions: Brain Heart Infusion, estolate and RV11-RV15 previously hydrolized, unit assumed
[2] = system: C. albicans SS 04; type: cell-based; conditions: Brain Heart Infusion, estolate and RV11-RV15 previously hydrolized, unit assumed
[3] = in vivo; for Hematic levels in the rat: po, 100 mg/kg; for absorption by oral route (in words): rat
[4] = system: Pr. vulgaris SS 10; type: cell-based; conditions: Brain Heart Infusion, estolate and RV11-RV15 previously hydrolized, unit assumed
[5] = system: E. aerogenes SS 011; type: cell-based; conditions: Brain Heart Infusion, estolate and RV11-RV15 previously hydrolized, unit assumed
[6] = Hematic levels in the healthy volunteer; type: in vivo, healthy volunteers; conditions: oral, 500 mg of erythromycin, average
Excerpt: For the dosing, the microbiological method using a B. subtilis strain was adopted.

[7] = system: H. pertussis SS 03; type: cell-based; conditions: Brain Heart Infusion, estolate and RV11-RV15 previously hydrolized, unit assumed
[8] = Hematic levels in the rat (absorption by oral route); conditions: for absorption by oral route (in words): from in vivo antibacterial and pharmacodynamic tests
[9] = 0.30 hours, 100 mg/kg as erythromycin, average, 100 mg/kg, 18 min
[10] = 1 hour, 100 mg/kg as erythromycin, average, 100 mg/kg, 60 min
[11] = 4 hours, 100 mg/kg as erythromycin, average, 100 mg/kg, 240 min
[12] = 5 hours, 100 mg/kg as erythromycin, average, 100 mg/kg, 300 min
[13] = 6 hours, 100 mg/kg as erythromycin, average, 100 mg/kg, 360 min
[14] = 2 hours, 100 mg/kg as erythromycin, average, 100 mg/kg, 120 min
[15] = 3 hours, 100 mg/kg as erythromycin, average, 100 mg/kg, 180 min

Compound | MIC [1] [µg/mL] | MIC [2] [µg/mL] | Hematic levels in the rat ([3]; 0.3 h) [µg/mL] | Hematic levels in the rat ([3]; 1 h) [µg/mL] | Hematic levels in the rat ([3]; 2 h) [µg/mL] | Hematic levels in the rat ([3]; 3 h) [µg/mL] | Hematic levels in the rat ([3]; 4 h) [µg/mL] | Hematic levels in the rat ([3]; 5 h) [µg/mL] | Hematic levels in the rat ([3]; 6 h) [µg/mL] | absorption by oral route (in words) [3] | MIC [4] [µg/mL] | MIC [5] [µg/mL] | Hematic levels in the healthy volunteer ([6]; 0.30 hours, 18 min) [µg/mL] | MIC [7] [µg/mL] | Hematic levels in the rat [8, 9] [µg/mL] | Hematic levels in the rat [8, 10] [µg/mL] | Hematic levels in the rat [8, 11] [µg/mL] | Hematic levels in the rat [8, 12] [µg/mL] | Hematic levels in the rat [8, 13] [µg/mL] | absorption by oral route (in words) [8] | other results
CCC(=O)O[C@H]1[C@H](O[C@@H]2[C@@H](C)[C@H](O[C@H]3C[C@@](C)(OC)[C@@H](O)[C@H](C)O3)[C@@H](C)C(=O)O[C@H](CC)[C@@](C)(O)[C@H](O)[C@@H](C)C(=O)[C@H](C)C[C@@]2(C)O)O[C@H](C)C[C@@H]1N(C)C [RV11, erythromycin-monopropionate-alpha-mercaptosuccinate] | 50 (≈ 63.3 µM) | 200 (≈ 253 µM) | 0.72 | 1.64 | 2.50 | 1.31 | 0.58 | 0.38 | 0.08 | absorbed by oral route in a rate practically analogous to that of erythromycin estolate | > 200 | 100 (≈ 127 µM) | 1.28 | 0.4 (≈ 0.506 µM) |  |  |  |  |  |  | Hematic levels in the healthy volunteer ([6]; 1 hour, 60 min): 1.70 µg/mL; Hematic levels in the healthy volunteer ([6]; 2 hours, 120 min): 2.16 µg/mL; Hematic levels in the healthy volunteer ([6]; 3 hours, 180 min): 1.48 µg/mL; Hematic levels in the healthy volunteer ([6]; 4 hours, 240 min): 1.21 µg/mL
CC[C@H]1OC(=O)[C@H](C)[C@@H](O[C@H]2C[C@@](C)(OC)[C@@H](O)[C@H](C)O2)[C@H](C)[C@@H](O[C@@H]2O[C@H](C)C[C@H](N(C)C)[C@H]2O)[C@](C)(O)C[C@@H](C)C(=O)[C@H](C)[C@@H](O)[C@]1(C)O [RV01, erythromycin alpha-mercaptosuccinate] | 25 (≈ 34.1 µM) | > 200 |  |  |  |  |  |  |  |  | > 200 | 50 (≈ 68.1 µM) |  | 0.4 (≈ 0.545 µM) | 0.48 | 0.79 | 0.44 | 0.24 | 0.03 | poorly absorbed by oral route and in a rate like that of erythromycin base | concentration at 2 h ([8]; rat, blood, po, 100 mg/kg, Hematic levels in the rat, 2 hours, 100 mg/kg as erythromycin, average): 1180 ng/mL; concentration at 3 h ([8]; rat, blood, po, 100 mg/kg, Hematic levels in the rat, 3 hours, 100 mg/kg as erythromycin, average): 770 ng/mL
CCC(=O)O[C@H]1[C@H](O[C@@H]2[C@@H](C)[C@H](O[C@H]3C[C@@](C)(OC)[C@@H](O)[C@H](C)O3)[C@@H](C)C(=O)O[C@H](CC)[C@@](C)(O)[C@H](O)[C@@H](C)C(=O)[C@H](C)C[C@@]2(C)O)O[C@H](C)C[C@@H]1N(C)C [RV13, erythromycin-monopropionate-thiazolidin-carboxylate] | 50 (≈ 63.3 µM) | 100 (≈ 127 µM) | 0.81 | 1.80 | 2.47 | 1.10 | 0.72 | 0.52 | 0.12 | absorbed by oral route in a rate practically analogous to that of erythromycin estolate | > 200 | 50 (≈ 63.3 µM) | 1.16 | 0.2 (≈ 0.253 µM) |  |  |  |  |  |  | Hematic levels in the healthy volunteer ([6]; 1 hour, 60 min): 1.67 µg/mL; Hematic levels in the healthy volunteer ([6]; 2 hours, 120 min): 2.21 µg/mL; Hematic levels in the healthy volunteer ([6]; 3 hours, 180 min): 1.67 µg/mL; Hematic levels in the healthy volunteer ([6]; 4 hours, 240 min): 1.29 µg/mL
CCC(=O)O[C@H]1[C@H](O[C@@H]2[C@@H](C)[C@H](O[C@H]3C[C@@](C)(OC)[C@@H](O)[C@H](C)O3)[C@@H](C)C(=O)O[C@H](CC)[C@@](C)(O)[C@H](O)[C@@H](C)C(=O)[C@H](C)C[C@@]2(C)O)O[C@H](C)C[C@@H]1N(C)C [RV15, erythromycin monopropionate N-acetylcysteinate] | 50 (≈ 63.3 µM) | 200 (≈ 253 µM) | 0.85 | 1.90 | 2.68 | 1.19 | 0.55 | 0.44 | 0.03 | absorbed by oral route in a rate practically analogous to that of erythromycin estolate | > 200 | 50 (≈ 63.3 µM) | 1.10 | 0.2 (≈ 0.253 µM) |  |  |  |  |  |  | Hematic levels in the healthy volunteer ([6]; 1 hour, 60 min): 1.58 µg/mL; Hematic levels in the healthy volunteer ([6]; 2 hours, 120 min): 2.17 µg/mL; Hematic levels in the healthy volunteer ([6]; 3 hours, 180 min): 1.72 µg/mL; Hematic levels in the healthy volunteer ([6]; 4 hours, 240 min): 1.38 µg/mL
CC[C@H]1OC(=O)[C@H](C)[C@@H](O[C@H]2C[C@@](C)(OC)[C@@H](O)[C@H](C)O2)[C@H](C)[C@@H](O[C@@H]2O[C@H](C)C[C@H](N(C)C)[C@H]2O)[C@](C)(O)C[C@@H](C)C(=O)[C@H](C)[C@@H](O)[C@]1(C)O [RV03, erythromycyn-thiazolidin-carboxylate] | 50 (≈ 68.1 µM) | 200 (≈ 273 µM) |  |  |  |  |  |  |  |  | > 200 | 50 (≈ 68.1 µM) |  | 0.4 (≈ 0.545 µM) | 0.58 | 0.71 | 0.59 | 0.36 | 0.07 | poorly absorbed by oral route and in a rate like that of erythromycin base | Hematic levels in the rat [8, 14]: 1.30 µg/mL; Hematic levels in the rat [8, 15]: 0.77 µg/mL
CC[C@H]1OC(=O)[C@H](C)[C@@H](O[C@H]2C[C@@](C)(OC)[C@@H](O)[C@H](C)O2)[C@H](C)[C@@H](O[C@@H]2O[C@H](C)C[C@H](N(C)C)[C@H]2O)[C@](C)(O)C[C@@H](C)C(=O)[C@H](C)[C@@H](O)[C@]1(C)O [RV04, erythromycin-S-carboxymethylcysteinate] | 25 (≈ 34.1 µM) | 100 (≈ 136 µM) |  |  |  |  |  |  |  |  | > 200 | 50 (≈ 68.1 µM) |  | 0.8 (≈ 1.09 µM) | 0.50 | 0.71 | 0.68 | 0.43 | 0.15 | poorly absorbed by oral route and in a rate like that of erythromycin base | Hematic levels in the rat [8, 14]: 1.30 µg/mL; Hematic levels in the rat [8, 15]: 1.04 µg/mL
CC[C@H]1OC(=O)[C@H](C)[C@@H](O[C@H]2C[C@@](C)(OC)[C@@H](O)[C@H](C)O2)[C@H](C)[C@@H](O[C@@H]2O[C@H](C)C[C@H](N(C)C)[C@H]2O)[C@](C)(O)C[C@@H](C)C(=O)[C@H](C)[C@@H](O)[C@]1(C)O [RV05, erythromycin-N-acetylcysteinate] | 25 (≈ 34.1 µM) | 100 (≈ 136 µM) |  |  |  |  |  |  |  |  | > 200 | 100 (≈ 136 µM) |  | 0.2 (≈ 0.273 µM) | 0.44 | 0.83 | 0.59 | 0.40 | 0.08 | poorly absorbed by oral route and in a rate like that of erythromycin base | Hematic levels in the rat [8, 14]: 1.41 µg/mL; Hematic levels in the rat [8, 15]: 1.03 µg/mL
